{"source": "ChEMBL document CHEMBL3124815", "about": "“Discovery of a selective kinase inhibitor (TAK-632) targeting pan-RAF inhibition: design, synthesis, and biological evaluation of C-7-substituted 1,3-benzothiazole derivatives” (J Med Chem, 2013)", "key": {"[1]": {"target": "T1, RAF proto-oncogene serine/threonine-protein kinase (Homo sapiens, UniProt P04049)", "T1 sequence (P04049 whole entry)": "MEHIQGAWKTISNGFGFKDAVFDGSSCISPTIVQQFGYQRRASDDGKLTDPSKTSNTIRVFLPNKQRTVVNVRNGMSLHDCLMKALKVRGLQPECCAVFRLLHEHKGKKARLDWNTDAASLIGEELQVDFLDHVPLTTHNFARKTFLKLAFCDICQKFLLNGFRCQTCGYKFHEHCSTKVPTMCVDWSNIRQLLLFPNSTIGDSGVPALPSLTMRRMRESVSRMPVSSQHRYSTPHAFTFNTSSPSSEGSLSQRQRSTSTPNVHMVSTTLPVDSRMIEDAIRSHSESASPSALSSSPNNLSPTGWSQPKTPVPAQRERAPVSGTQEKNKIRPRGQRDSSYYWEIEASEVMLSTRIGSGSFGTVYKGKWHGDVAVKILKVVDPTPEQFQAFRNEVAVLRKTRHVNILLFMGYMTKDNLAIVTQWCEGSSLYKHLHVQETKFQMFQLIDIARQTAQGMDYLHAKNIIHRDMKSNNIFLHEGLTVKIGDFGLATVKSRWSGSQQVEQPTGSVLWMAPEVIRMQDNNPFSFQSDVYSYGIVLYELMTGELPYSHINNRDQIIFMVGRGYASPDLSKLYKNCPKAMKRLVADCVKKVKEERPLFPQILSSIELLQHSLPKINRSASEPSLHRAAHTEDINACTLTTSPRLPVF", "test": "Inhibition of CRAF (unknown origin) compound preincubated for 1 hr in presence of 0.5 uM ATP"}, "Rattus norvegicus [2]": {"system": "Rattus norvegicus", "test": "Toxicity in F344 nude rat xenografted with human HMVII cells expressing NRAS Q61K/BRAF G469V mutant assessed as body weight change at 3.9 mg/kg, po bid for 14 days", "type": "organism-based", "design": "dose 3.9 mg/kg, route oral", "details": "in vivo, 336 h"}, "[3]": {"target": "T2, Serine/threonine-protein kinase B-raf (Homo sapiens, UniProt P15056, V600E)", "T2 sequence (P15056 2-766 V600E limits assumed)": "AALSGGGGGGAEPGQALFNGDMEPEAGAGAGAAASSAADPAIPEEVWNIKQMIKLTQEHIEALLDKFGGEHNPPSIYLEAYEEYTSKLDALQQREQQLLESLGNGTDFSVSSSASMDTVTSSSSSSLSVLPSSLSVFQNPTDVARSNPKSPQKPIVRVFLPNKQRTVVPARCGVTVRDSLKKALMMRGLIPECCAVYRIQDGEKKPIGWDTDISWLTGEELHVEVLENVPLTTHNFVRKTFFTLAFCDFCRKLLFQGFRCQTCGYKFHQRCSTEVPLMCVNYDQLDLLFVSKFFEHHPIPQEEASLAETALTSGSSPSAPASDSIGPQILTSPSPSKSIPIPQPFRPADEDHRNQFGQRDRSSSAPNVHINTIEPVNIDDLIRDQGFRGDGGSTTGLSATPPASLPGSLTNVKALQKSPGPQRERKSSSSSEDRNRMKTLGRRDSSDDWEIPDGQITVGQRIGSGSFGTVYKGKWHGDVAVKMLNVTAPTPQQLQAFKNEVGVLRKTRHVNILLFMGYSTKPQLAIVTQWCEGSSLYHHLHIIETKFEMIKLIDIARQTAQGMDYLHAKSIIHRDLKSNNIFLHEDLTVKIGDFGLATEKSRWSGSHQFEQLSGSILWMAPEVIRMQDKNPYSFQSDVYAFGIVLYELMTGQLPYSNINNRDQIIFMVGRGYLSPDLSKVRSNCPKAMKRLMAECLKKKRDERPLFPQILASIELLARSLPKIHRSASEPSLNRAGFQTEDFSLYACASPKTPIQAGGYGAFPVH", "test": "Inhibition of BRAF V600E mutant in human HT-29 cells assessed as phosphorylation of MEK", "type": "cell-based"}, "[4]": {"test": "Antitumor activity against human HMVII cells expressing NRAS Q61K/BRAF G469V mutant xenografted in F344 nude rat assessed as reduction in tumor size at 9.7 mg/kg, po bid for 14 days relative to control", "type": "functional, HMV-2"}, "[5]": {"target": "T2, Serine/threonine-protein kinase B-raf", "test": "Inhibition of BRAF V600E mutant in human A375 cells assessed as phosphorylation of MEK after 2 hrs by Western blotting analysis", "type": "cell-based, A-375"}, "[6]": {"target": "Serine/threonine-protein kinase B-raf (Homo sapiens, UniProt P15056)", "sequence (P15056 whole entry)": "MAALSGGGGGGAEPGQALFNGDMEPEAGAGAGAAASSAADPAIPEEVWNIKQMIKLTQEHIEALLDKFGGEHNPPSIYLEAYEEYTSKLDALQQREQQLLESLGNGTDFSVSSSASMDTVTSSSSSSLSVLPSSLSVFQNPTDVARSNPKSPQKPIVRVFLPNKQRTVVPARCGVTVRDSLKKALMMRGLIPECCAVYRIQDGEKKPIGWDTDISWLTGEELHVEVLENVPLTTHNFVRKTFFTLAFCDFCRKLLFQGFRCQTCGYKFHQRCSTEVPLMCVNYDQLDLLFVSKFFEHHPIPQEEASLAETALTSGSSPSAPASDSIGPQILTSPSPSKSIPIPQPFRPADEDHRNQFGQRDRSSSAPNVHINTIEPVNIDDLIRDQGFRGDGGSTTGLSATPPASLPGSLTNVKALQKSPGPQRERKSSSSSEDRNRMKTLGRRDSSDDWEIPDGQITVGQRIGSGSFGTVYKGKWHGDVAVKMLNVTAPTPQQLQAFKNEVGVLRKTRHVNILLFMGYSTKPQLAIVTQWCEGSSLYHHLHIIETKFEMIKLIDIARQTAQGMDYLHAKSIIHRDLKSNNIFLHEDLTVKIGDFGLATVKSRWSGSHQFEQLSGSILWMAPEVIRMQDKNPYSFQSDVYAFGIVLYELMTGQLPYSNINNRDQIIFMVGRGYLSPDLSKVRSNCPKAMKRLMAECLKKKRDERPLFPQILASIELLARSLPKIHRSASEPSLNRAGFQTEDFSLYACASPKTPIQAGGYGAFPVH", "description": "Binding affinity to BRAF (unknown origin) assessed as dissociation half life by surface plasmon resonance analysis"}, "Angiopoietin-1 receptor": {"target": "Angiopoietin-1 receptor (Homo sapiens, UniProt Q02763)", "test": "Inhibition of TIE2 receptor (unknown origin) using biotinylated poly-Glu-Tyr (4:1) as substrate preincubated for 5 mins measured after 12 hrs"}, "A-375 [7]": {"system": "A-375", "test": "Antitumor activity against human A375 cells expressing BRAF V600E mutant xenografted in F344 nude rat assessed as reduction in tumor size at 9.7 mg/kg, po bid for 14 days relative to control", "type": "functional"}, "[8]": {"target": "T2, Serine/threonine-protein kinase B-raf", "test": "Inhibition of BRAF V600E mutant in human A375 cells assessed as phosphorylation of ERK after 2 hrs by Western blotting analysis", "type": "cell-based, A-375"}, "[9]": {"test": "Mean residence time in dog at 10 mg/kg, po", "type": "ADME, organism-based, Canis lupus familiaris", "design": "dose 10 mg/kg, route oral", "details": "in vivo"}, "A-375 [10]": {"system": "A-375", "test": "Antitumor activity against human A375 cells expressing BRAF V600E mutant xenografted in F344 nude rat assessed as reduction in tumor size at 1.9 mg/kg, po bid for 14 days relative to control", "type": "functional"}, "[11]": {"target": "Receptor tyrosine-protein kinase erbB-2 (Homo sapiens, UniProt P04626)", "sequence (P04626 whole entry)": "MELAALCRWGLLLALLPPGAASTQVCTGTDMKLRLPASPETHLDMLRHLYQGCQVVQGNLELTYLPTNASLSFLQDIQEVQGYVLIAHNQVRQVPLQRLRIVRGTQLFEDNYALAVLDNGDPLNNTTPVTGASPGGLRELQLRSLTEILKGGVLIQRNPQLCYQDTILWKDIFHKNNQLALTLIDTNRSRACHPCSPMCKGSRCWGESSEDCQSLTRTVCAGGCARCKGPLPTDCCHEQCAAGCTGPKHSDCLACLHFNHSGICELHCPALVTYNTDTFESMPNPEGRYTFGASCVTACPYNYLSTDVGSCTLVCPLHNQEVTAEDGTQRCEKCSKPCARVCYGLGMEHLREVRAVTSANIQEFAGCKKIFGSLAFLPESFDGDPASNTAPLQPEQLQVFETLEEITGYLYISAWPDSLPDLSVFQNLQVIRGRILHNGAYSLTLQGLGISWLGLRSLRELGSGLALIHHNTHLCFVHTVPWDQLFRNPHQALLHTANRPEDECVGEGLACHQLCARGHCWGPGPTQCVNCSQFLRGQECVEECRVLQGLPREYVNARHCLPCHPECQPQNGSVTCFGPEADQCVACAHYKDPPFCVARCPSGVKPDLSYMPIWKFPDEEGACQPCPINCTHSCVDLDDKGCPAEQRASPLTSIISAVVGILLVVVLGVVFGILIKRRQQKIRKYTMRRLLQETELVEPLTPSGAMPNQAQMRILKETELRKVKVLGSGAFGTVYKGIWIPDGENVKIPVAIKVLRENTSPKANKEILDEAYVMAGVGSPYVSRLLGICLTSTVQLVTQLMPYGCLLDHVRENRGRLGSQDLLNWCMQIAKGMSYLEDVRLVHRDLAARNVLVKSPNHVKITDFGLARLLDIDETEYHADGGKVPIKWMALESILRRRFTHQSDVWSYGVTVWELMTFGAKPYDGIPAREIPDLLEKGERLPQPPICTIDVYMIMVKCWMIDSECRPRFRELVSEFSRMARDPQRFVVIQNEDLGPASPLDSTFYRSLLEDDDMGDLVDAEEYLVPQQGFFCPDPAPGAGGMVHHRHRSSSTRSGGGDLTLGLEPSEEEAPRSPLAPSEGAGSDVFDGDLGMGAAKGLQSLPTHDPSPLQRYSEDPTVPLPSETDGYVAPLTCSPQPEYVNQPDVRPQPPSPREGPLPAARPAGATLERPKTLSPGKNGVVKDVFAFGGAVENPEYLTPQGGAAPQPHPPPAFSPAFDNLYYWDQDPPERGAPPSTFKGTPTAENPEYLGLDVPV", "test": "Inhibition of N-terminal peptide (DYKDDDD)-tagged HER2 (unknown origin) expressed in baculovirus system using biotinylated poly-Glu-Tyr (4:1) as substrate preincubated for 5 mins measured after 12 hrs by scintillation counting"}, "[12]": {"target": "T1, RAF proto-oncogene serine/threonine-protein kinase", "test": "Inhibition of CRAF (unknown origin) in presence of 1000 uM ATP by ELISA"}, "[13]": {"target": "Epidermal growth factor receptor (Homo sapiens, UniProt P00533)", "test": "Inhibition of N-terminal peptide (DYKDDDD)-tagged EGFR (unknown origin) expressed in baculovirus system using biotinylated poly-Glu-Tyr (4:1) as substrate preincubated for 5 mins measured after 12 hrs by scintillation counting"}, "[14]": {"test": "Oral bioavailability in dog at 10 mg/kg", "type": "ADME, organism-based, Canis lupus familiaris", "details": "in vivo"}, "[15]": {"target": "T1, RAF proto-oncogene serine/threonine-protein kinase", "test": "Inhibition of CRAF (unknown origin) compound preincubated for 1 hr in presence of 1000 uM ATP"}, "[16]": {"test": "Inhibition of PKA (unknown origin) expressed in Escherichia coli after 10 mins", "design": "species or system Homo sapiens"}, "[17]": {"target": "T2, Serine/threonine-protein kinase B-raf", "test": "Inhibition of BRAF V600E mutant (unknown origin) in presence of 1000 uM ATP by ELISA"}, "[18]": {"target": "Dual specificity mitogen-activated protein kinase kinase 1 (Homo sapiens, UniProt Q02750)", "sequence (Q02750 whole entry)": "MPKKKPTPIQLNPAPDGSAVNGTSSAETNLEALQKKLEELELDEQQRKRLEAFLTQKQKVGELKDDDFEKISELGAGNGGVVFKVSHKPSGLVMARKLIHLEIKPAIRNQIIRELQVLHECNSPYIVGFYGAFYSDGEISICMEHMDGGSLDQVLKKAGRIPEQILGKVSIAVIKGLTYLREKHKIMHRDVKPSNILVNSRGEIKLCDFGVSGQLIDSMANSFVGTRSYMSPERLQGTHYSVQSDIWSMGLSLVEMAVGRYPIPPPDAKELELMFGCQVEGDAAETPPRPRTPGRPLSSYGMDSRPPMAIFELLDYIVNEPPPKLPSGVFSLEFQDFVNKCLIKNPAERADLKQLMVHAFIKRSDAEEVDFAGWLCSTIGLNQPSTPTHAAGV", "test": "Inhibition of N-terminal GST-tagged MEK1 (unknown origin) expressed in 293 cells using GST-ERK1(K71A) as substrate after 20 mins"}, "A-375 [19]": {"system": "A-375", "test": "Antitumor activity against human A375 cells expressing BRAF V600E mutant xenografted in F344 nude rat assessed as reduction in tumor size at 24.1 mg/kg, po bid for 14 days relative to control", "type": "functional"}, "Rattus norvegicus [20]": {"system": "Rattus norvegicus", "test": "Toxicity in F344 nude rat xenografted with human A375 cells expressing BRAF V600E mutant assessed as body weight change at 24.1 mg/kg, po bid for 14 days relative to control", "type": "organism-based, A-375", "design": "dose 24.1 mg/kg, route oral", "details": "in vivo, 336 h"}, "[21]": {"test": "Solubility of the compound in form of solid dispersion in phosphate buffer at pH 6.8", "type": "physicochemical"}, "[22]": {"test": "Oral bioavailability in rat at 25 mg/kg", "type": "ADME, organism-based", "details": "in vivo"}, "Rattus norvegicus [23]": {"system": "Rattus norvegicus", "test": "Toxicity in F344 nude rat xenografted with human HMVII cells expressing NRAS Q61K/BRAF G469V mutant assessed as body weight change at 24.1 mg/kg, po bid for 14 days", "type": "organism-based", "design": "dose 24.1 mg/kg, route oral", "details": "in vivo, 336 h"}, "[24]": {"target": "Proto-oncogene tyrosine-protein kinase Src (Homo sapiens, UniProt P12931)", "test": "Inhibition of Src receptor (unknown origin) using biotinylated poly-Glu-Tyr (4:1) as substrate preincubated for 5 mins measured after 12 hrs"}, "[25]": {"target": "T2, Serine/threonine-protein kinase B-raf", "test": "Inhibition of BRAF V600E mutant (unknown origin) compound preincubated for 1 hr in presence of 5 uM ATP"}, "[26]": {"test": "Total clearance in rat at 1 mg/kg, iv", "type": "ADME, organism-based", "design": "dose 1 mg/kg, route intravenous", "details": "in vivo"}, "[27]": {"test": "Antitumor activity against human HMVII cells expressing NRAS Q61K/BRAF G469V mutant xenografted in F344 nude rat assessed as reduction in tumor size at 24.1 mg/kg, po bid for 14 days relative to control", "type": "functional, HMV-2"}, "[28]": {"target": "Inhibitor of nuclear factor kappa-B kinase subunit beta (Homo sapiens, UniProt O14920)", "sequence (O14920 whole entry)": "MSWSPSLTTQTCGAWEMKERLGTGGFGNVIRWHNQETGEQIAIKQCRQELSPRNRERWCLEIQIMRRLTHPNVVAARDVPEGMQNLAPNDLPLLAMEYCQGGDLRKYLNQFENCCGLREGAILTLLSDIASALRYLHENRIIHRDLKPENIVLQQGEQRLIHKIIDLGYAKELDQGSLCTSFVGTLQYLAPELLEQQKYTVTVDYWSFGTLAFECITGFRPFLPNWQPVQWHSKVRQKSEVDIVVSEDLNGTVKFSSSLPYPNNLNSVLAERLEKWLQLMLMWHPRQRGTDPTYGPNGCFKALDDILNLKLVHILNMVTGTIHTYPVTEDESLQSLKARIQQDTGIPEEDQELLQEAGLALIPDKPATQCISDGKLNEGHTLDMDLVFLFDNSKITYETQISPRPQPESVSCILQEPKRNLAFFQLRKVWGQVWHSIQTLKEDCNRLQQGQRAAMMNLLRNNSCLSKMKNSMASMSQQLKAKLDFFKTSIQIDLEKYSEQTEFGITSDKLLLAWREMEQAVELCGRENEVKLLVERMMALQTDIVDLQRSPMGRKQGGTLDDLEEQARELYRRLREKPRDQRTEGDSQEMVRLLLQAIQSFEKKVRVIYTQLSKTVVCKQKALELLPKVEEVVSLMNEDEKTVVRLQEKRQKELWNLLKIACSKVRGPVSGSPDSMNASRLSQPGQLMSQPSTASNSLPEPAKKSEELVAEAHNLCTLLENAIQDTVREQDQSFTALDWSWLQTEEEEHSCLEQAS", "test": "Inhibition of C-terminal FLAG-tagged IKK beta (unknown origin) expressed in baculovirus system using IkappaBalpha as substrate after 40 mins"}, "[29]": {"test": "AUC (0 to 24 hrs) in rat at 1 mg/kg, iv", "type": "ADME, organism-based", "design": "time < 24 hr, dose 1 mg/kg, route intravenous", "details": "plasma"}, "[30]": {"test": "Antitumor activity against human HMVII cells expressing NRAS Q61K/BRAF G469V mutant xenografted in F344 nude rat assessed as reduction in tumor size at 3.9 mg/kg, po bid for 14 days relative to control", "type": "functional, HMV-2"}, "[31]": {"test": "Inhibition of NRASQ61k/BRAFG469V-mutant in human HMVII cells assessed as phosphorylation of ERK after 2 hrs by Western blotting analysis", "type": "cell-based"}, "CDK2/Cyclin A2": {"target": "CDK2/Cyclin A2 (Homo sapiens, UniProt P24941)", "test": "Inhibition of CDK2/CycA (unknown origin) using histone H1 as substrate after 20 mins", "type": "protein-complex assay"}, "A-375 [32]": {"system": "A-375", "test": "Antitumor activity against human A375 cells expressing BRAF V600E mutant xenografted in F344 nude rat assessed as reduction in tumor size at 3.9 mg/kg, po bid for 14 days relative to control", "type": "functional"}, "[33]": {"target": "Mitogen-activated protein kinase 8 (Homo sapiens, UniProt P45983)", "sequence (P45983 whole entry)": "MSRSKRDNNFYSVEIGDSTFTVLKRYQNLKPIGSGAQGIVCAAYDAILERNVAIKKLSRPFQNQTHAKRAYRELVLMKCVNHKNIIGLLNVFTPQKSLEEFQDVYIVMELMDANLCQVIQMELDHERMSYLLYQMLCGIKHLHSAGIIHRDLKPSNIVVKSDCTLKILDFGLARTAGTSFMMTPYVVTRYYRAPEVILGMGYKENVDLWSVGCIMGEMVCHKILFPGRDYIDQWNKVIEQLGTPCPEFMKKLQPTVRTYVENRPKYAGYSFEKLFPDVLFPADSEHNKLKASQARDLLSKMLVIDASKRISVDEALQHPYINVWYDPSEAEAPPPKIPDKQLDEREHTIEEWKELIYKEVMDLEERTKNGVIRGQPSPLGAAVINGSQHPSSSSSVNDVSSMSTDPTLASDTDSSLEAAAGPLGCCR", "test": "Inhibition of C-terminal FLAG-tagged JNK1 (unknown origin) expressed in baculovirus system using c-jun as substrate after 60 mins"}, "A-375 [34]": {"system": "A-375", "test": "Antiproliferative activity against human A375 cells assessed as growth inhibition after 72 hrs by chemi-luminescence cell viability assay", "type": "functional", "details": "A-375, 72 h"}, "[35]": {"target": "Hepatocyte growth factor receptor (Homo sapiens, UniProt P08581)", "test": "Inhibition of c-Met receptor (unknown origin) using biotinylated poly-Glu-Tyr (4:1) as substrate preincubated for 5 mins measured after 12 hrs"}}}
{"smiles": "N#Cc1c(Oc2ccc(F)c(NC(=O)Cc3cccc(C(F)(F)F)c3)c2)ccc2nc(NC(=O)C3CC3)sc12", "values": [{"measurement": "IC50", "setting": "[1]", "result": 1.5, "unit": "nM"}, {"measurement": "Activity", "setting": "Rattus norvegicus [2]", "result": -4.8, "unit": "g"}, {"measurement": "IC50", "setting": "[3]", "result": 75, "unit": "nM"}, {"measurement": "T/C", "setting": "[4]", "result": 26, "unit": "%"}, {"measurement": "IC50", "setting": "[5]", "result": 12, "unit": "nM"}, {"measurement": "T1/2", "setting": "[6]", "result": 10, "unit": "h"}, {"measurement": "IC50", "setting": "Angiopoietin-1 receptor", "result": 740, "unit": "nM"}, {"measurement": "T/C", "setting": "A-375 [7]", "result": -2.1, "unit": "%"}, {"measurement": "IC50", "setting": "[8]", "result": 16, "unit": "nM"}, {"measurement": "MRT", "setting": "[9]", "result": 7.12, "unit": "h"}, {"measurement": "T/C", "setting": "A-375 [10]", "result": 103, "unit": "%"}, {"measurement": "IC50", "setting": "[11]", "result": "> 10000", "unit": "nM"}, {"measurement": "IC50", "setting": "[12]", "result": 62, "unit": "nM"}, {"measurement": "IC50", "setting": "[13]", "result": "> 10000", "unit": "nM"}, {"measurement": "bioavailability", "setting": "[14]", "result": 108, "unit": "%"}, {"measurement": "IC50", "setting": "[15]", "result": 5, "unit": "nM"}, {"measurement": "IC50", "setting": "[16]", "result": "> 10000", "unit": "nM"}, {"measurement": "IC50", "setting": "[17]", "result": 58, "unit": "nM"}, {"measurement": "IC50", "setting": "[18]", "result": 3700, "unit": "nM"}, {"measurement": "T/C", "setting": "A-375 [19]", "result": -12.1, "unit": "%"}, {"measurement": "Activity", "setting": "Rattus norvegicus [20]", "result": 18.6, "unit": "g"}, {"measurement": "solubility", "setting": "[21]", "result": 740, "unit": "µg/mL"}, {"measurement": "bioavailability", "setting": "[22]", "result": 51.7, "unit": "%"}, {"measurement": "Activity", "setting": "Rattus norvegicus [23]", "result": 28.4, "unit": "g"}, {"measurement": "IC50", "setting": "[24]", "result": "> 10000", "unit": "nM"}, {"measurement": "IC50", "setting": "[25]", "result": 2.2, "unit": "nM"}, {"measurement": "clearance", "setting": "[26]", "result": 6.67, "unit": "mL/min/kg"}, {"measurement": "T/C", "setting": "[27]", "result": 0, "unit": "%"}, {"measurement": "IC50", "setting": "[28]", "result": 3700, "unit": "nM"}, {"measurement": "AUC(0-t) at 24 h", "setting": "[29]", "result": 2510, "unit": "ng·h/mL"}, {"measurement": "T/C", "setting": "[30]", "result": 52, "unit": "%"}, {"measurement": "IC50", "setting": "[31]", "result": 50, "unit": "nM"}, {"measurement": "IC50", "setting": "CDK2/Cyclin A2", "result": 580, "unit": "nM"}, {"measurement": "T/C", "setting": "A-375 [32]", "result": 62.2, "unit": "%"}, {"measurement": "IC50", "setting": "[33]", "result": "> 10000", "unit": "nM"}, {"measurement": "GI50", "setting": "A-375 [34]", "result": 66, "unit": "nM"}, {"measurement": "IC50", "setting": "[35]", "result": "> 10000", "unit": "nM"}]}
